Laboratory results from PMC6934184, “Selective DNA-PKcs inhibition extends the therapeutic index of localized radiotherapy and chemotherapy” (The Journal of Clinical Investigation, 2019).

Target: T1, CAMK1D (CaMKI delta) (Homo sapiens, UniProt Q8IU85)
T1 construct: purchased Thermo Fisher Scientific (Life Technologies) SelectScreen
Assay: SelectScreen Z'LYTE
Format: biochemical
Procedure, shortened: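 NU5455 was profiled across the SelectScreen Broad panel of kinase activity and binding assays. Z'LYTE reactions such as CSF1R ran at apparent Km ATP, while the Adapta CAMK1 assay used ATP listed as 10. Values are given as percent.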

T1 sequence (Q8IU85 whole entry): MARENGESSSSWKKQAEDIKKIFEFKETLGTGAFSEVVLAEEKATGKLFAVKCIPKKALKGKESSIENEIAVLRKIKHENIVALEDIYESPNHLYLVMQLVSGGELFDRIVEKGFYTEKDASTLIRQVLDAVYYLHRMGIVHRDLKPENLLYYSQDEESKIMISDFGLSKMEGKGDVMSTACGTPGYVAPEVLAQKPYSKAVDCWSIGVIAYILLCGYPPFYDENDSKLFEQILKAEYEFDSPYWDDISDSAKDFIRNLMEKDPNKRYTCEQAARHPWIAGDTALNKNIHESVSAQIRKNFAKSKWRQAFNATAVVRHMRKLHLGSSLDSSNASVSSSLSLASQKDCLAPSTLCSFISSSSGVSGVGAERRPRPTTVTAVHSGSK

In the case of CN(C(=O)CN1CCOCC1)c1ccc2sc3c(-c4cccc5c(=O)cc(N6CC7CCC(C6)O7)oc45)cccc3c2c1 [NU5455], the inhibition at 1 µM is reported as 4.1%.
